Patent US7728039B2, “Biphenyl and Naphthyl-Phenyl Hydroxamic Acid Derivatives” (Sigma-Tau Industrie Farmaceutiche Riunite S.p.A., priority 2005, dated 2010)
Like-named read-outs stand apart in the source and are kept apart here.

Experiments:
[1] = tested on: IGROV-1/Pt (platinum-resistant ovarian carcinoma cells); test: Sulphorodamine B cytotoxicity test on IGROV-1/Pt cells; format: cell-based; conditions: read-out: IC50 ± SD, IGROV-1/Pt
Source text: (§1) The cytotoxic effect of some biphenyl and phenylnaphthyl compounds bearing a hydroxamic acid group is reported herein. […] The chemical structures of the tested compounds of the invention and of the corresponding compounds bearing a carboxylic acid group are reported in FIG. 1. To test the effects of the compounds on cell growth, NB4 human promyelocytic leukaemia, NCI-H460 non-small cell carcinoma cells, H460/(R9A) (resistant to carboxylic acid-bearing compounds: ST1898, ST1926, ST1964), HCT-116 human colon carcinoma cells, IGROV-1 and IGROV-1/Pt (sensitive ovarian carcinoma and platinum-resistant ovarian carcinoma cells, respectively) were used. NB4 and NCI-H460 tumour cells were grown in RPMI 1640 containing 10% foetal bovine serum (GIBCO), HCT-116 tumour cells were grown in McCoy's 5A containing 10% foetal bovine serum (GIBCO), IGROV-1 and IGROV-1/Pt were grown in DMEM containing 10% foetal bovine serum (GIBCO),
(§2) Tumour cells were seeded in 96-well tissue culture plates at approximately 10% confluence and were allowed to attach and recover for at least 24 h. Varying concentrations of the drugs were then added to each well to calculate their IC50 value (the concentration which inhibits the 50% of cell survival). The plates were incubated for 24 h at 37° C. At the end of the treatment, for NB4 tumour cells in suspension, the procedure was performed as follows: medium culture was removed by centrifugation of the plates at 1600×g for 10 min and the surnatant was removed. 250 μl PBS were added, then the plates were centrifuged at 1600×g for 10 min, the surnatant was removed. 200 μl/well of medium culture RPMI 1640 containing 10% FCS were added and the plates were incubated at 37° C. for other 48 h. The plates were centrifuged again at 1600×g for 10 min, the medium culture was removed and 200 μl PBS and 50 μl of cold 80% TCA were added. The plates were incubated on ice for at least 1 h. TCA was removed, the plates were washed 3 times for immersion in distilled-water and dried on paper and at 40° C. for 5 min. Then 200 μl of 0.4% sulphorodamine B in 1% acetic acid were added. The plates were incubated at room temperature for other 30 min. Sulphorodamine B was removed, the plates were washed for immersion in 1% acetic acid for 3 times, then they were dried on paper and at 40° C. for 5 min. Then 200 μl Tris 10 mM were added, the plates were kept under stirring for 20 min. The survival cell was determined as optical density by a Multiskan spectrofluorimeter at 540 nm. For the tumour cells in adhesion (NCI-H460 and HCT-116), the procedure was as above mentioned, except that at the end of the treatment, the plates were washed by remotion of the surnatant and addition of PBS 3 times without centrifugation. Also the last day of the assay, the surnatant was removed without centrifugation.
(§3) The amount of cells killed was calculated as the percentage decrease in sulphorodamine B binding compared with control cultures. The IC50 values (the concentration which inhibits the 50% of cell survival) were calculated with the “ALLFIT” program.

[2] = tested on: IGROV-1 (sensitive ovarian carcinoma cells); test: Sulphorodamine B cytotoxicity test on IGROV-1 cells; format: cell-based; conditions: read-out: IC50 ± SD, IGROV-1
Source text: as §1, §2, §3

[3] = tested on: NB4 human promyelocytic leukaemia; test: Sulphorodamine B cytotoxicity test on NB4 cells; format: cell-based
Source text: as §1, §2, §3

[4] = tested on: NCI-H460 non-small cell carcinoma cells; test: Sulphorodamine B cytotoxicity test on NCI-H460 cells; format: cell-based; conditions: SRB, read-out: IC50 ± SD, NCI-H460
Protocol: The chemical structures of the tested compounds of the invention and of the corresponding compounds bearing a carboxylic acid group are reported in FIG. 1. […] NB4 and NCI-H460 tumour cells were grown in RPMI 1640 containing 10% foetal bovine serum (GIBCO), HCT-116 tumour cells were grown in McCoy's 5A containing 10% foetal bovine serum (GIBCO), IGROV-1 and IGROV-1/Pt were grown in DMEM containing 10% foetal bovine serum (GIBCO),
as §2, §3

[5] = tested on: NCI-H460 R9A tumour cells (H460/(R9A), resistant to carboxylic acid-bearing compounds); test: Sulphorodamine B cytotoxicity test on ST1926-resistant NCI-H460 R9A cells; format: cell-based; conditions: for RI (resistance index): IC50 on resistant tumour cell line/IC50 on sensitive tumour cell line (NCI-H460 R9A / NCI-H460); for IC50: Table 3, resistant NCI-H460 R9A, SRB, read-out: IC50 ± SD, NCI-H460 R9A; for overcoming of resistance on H460/R9A: H460/R9A versus sensitive NCI-H460, result in words
Source text: as §1, §2, §3
The resistant tumour cell line NCI H460 R9A was a clone selected for the resistance to ST1926 (Table 3). To obtain the resistant tumour cell line, the sensitive NCI-H460 tumour cells were treated with 2 μM ST1926 for 24 hours and maintained in drug-free medium for a recovering time of 7 days. Then, survived cells were cultured applying a continuous selective pressure of 2 μM (10×IC50) ST1926. Resistant NCI-H460 cells were subculture for 3-4 times before increasing ST1926 concentration to 4 μM (20×IC50). Survived cells were seeded in 96-well plates to isolate resistant cells clones and maintained in complete medium with 4 μM of ST1926. The tumour cell line was maintained at least for one week, before seeding for SRB cytotoxicity assay, in drug-free medium.
To evaluate the effect of the compound on survival cells, the sulphorodamine B test was used. […]

[6] = tested on: NB4 promyelocytic leukaemia cells; test: Differentiation of NB4 tumour cells by nitroblue tetrazolium (NBT) reduction, with or without ATRA; format: cell-based, human; conditions: 3 days, NBT-reducing activity; for Differentiation AC50: compound alone (without ATRA)
Source text: Relevant aspects of the differentiation program set in motion by ATRA in APL cells can be reproduced in primary cultures of leukemic blasts and in the derived NB4 cell line, which is a unique model for the study of the pharmacologic activity of ATRA and derivatives. Pharmacological concentrations of ATRA arrest the growth of NB4 blasts and differentiate them into cells that resemble mature neutrophils. This is followed by a slow process of apoptosis. […] In particular, the differentiation of NB4 tumour cells induced by the compounds was determined by nitroblue tetrazolium (NBT) reduction. NB4 promyelocytic leukaemia cells were seeded at a density of 150000 cells/ml in RPMI 1640 medium containing 10% FCS. To measure the cytodifferentiating effect of the molecules, tumour cells were treated with the compounds at different concentrations starting from at least 0.4 μM to 0.01 μM, whereas to measure the enhancing action of the molecules of ATRA activity, NB4 cells were treated with increasing concentrations of the molecules in the presence or absence of ATRA at a suboptimal concentration (5 nM).
Tumour cells were incubated for 3 days at 37° C. without replacing the medium culture. To measure the prodifferentiative effect, 500,000 cells were collected, centrifuged and resuspended in 1 ml of RPMI 1640 medium containing 10% FCS, 1 mg/ml of nitroblue tetrazolium (NBT) and 100 ng of PMA (4-phorbol-12-myristate-13-acetate). The tumour cells resuspended were incubated at 37° C. for 60 min. At the end of the incubation, tumour cells were centrifuged and the pellet was resuspended in 1 ml of PBS containing Triton ×100 at 10%. The samples were sonicated and the absorbance was determined at 540 nm with a spectrophotometer. Differentiation of tumor cells as AC50 (activating concentration) was evaluated as the concentration of the compound giving 50% of the maximal induction of NBT-reducing activity with or without ATRA.

[7] = tested on: HCT-116 human colon carcinoma cells; test: Sulphorodamine B cytotoxicity test on HCT-116 cells; format: cell-based; conditions: Table 2, SRB, read-out: IC50 ± SD, HCT-116
Source text: as §1, §2, §3

[8] = Table 4, NB4 tumour cells, compound alone, read-out: IC50 (μM ± SD)
[9] = Homo sapiens, NB-4, Table 4, NB4 tumour cells, compound alone, read-out: IC50 (μM ± SD)
[10] = Homo sapiens, NCI-H460, Table 3, sensitive NCI-H460
[11] = Homo sapiens, NB-4, Table 1, NB4, 24 h treatment, 48 h recovery, SRB, read-out: IC50 ± SD, NB4
[12] = Homo sapiens, NCI-H460, Table 2, NCI-H460

Q: Which results are given for `COc1ccc(-c2ccc(/C=C/C(=O)O)cc2)cc1C12CC3CC(CC(C3)C1)C2` [ST1898, reference compound]?
A: IC50 ([1]; Table 1, SRB): 1.43 ± 0.05 µM; IC50 ([2]; Table 1, SRB): 1.19 ± 0.05 µM; IC50 ([3]; Table 1, NB4, 24 h treatment, 48 h recovery, SRB, read-out: IC50 ± SD, NB4): 1.1 ± 0.07 µM; IC50 ([4]; Table 3, sensitive NCI-H460): 1.2 ± 0.02 µM; RI (resistance index) [5]: 53.6; IC50 [5]: 64.4 ± 5 µM

Q: Which results are given for `O=C(O)/C=C/c1ccc(-c2ccc(O)c(C34CC5CC(CC(C5)C3)C4)c2)cc1` [ST1926, E-3-(4′-hydroxy-3′-adamantylbiphenyl-4-yl)acrylic acid, reference compound]?
A: Differentiation AC50 [6]: no differentiation; IC50 [3, 8]: 0.082 ± 0.005 µM; IC50 ([4]; Table 3, sensitive NCI-H460): 0.13 ± 0.01 µM; RI (resistance index) [5]: 77.7; IC50 [5]: 10.1 ± 0.7 µM

Q: What does the source list for `O=C(O)c1ccc2cc(-c3ccc(O)c(C45CC6CC(CC(C6)C4)C5)c3)ccc2c1` [ST1964, 6-[3′-(1-adamantyl)-4′-hydroxyphenyl]-2-naphthalenecarboxylic acid, reference compound]?
A: Differentiation AC50 [6]: no differentiation; IC50 [3, 9]: 0.4 ± 0.05 µM; IC50 [4, 10]: 0.37 ± 0.02 µM; IC50 ([5]; Homo sapiens): 12.7 ± 0.7 µM; RI (resistance index) [5]: 34

Q: For `O=C(NO)c1ccc2cc(-c3ccc(O)c(C45CC6CC(CC(C6)C4)C5)c3)ccc2c1` [ST2142, 6-[3-1-(adamantyl)-4-hydroxyphenyl]-naphthalene-2-carboxylic acid N-hydroxyamide], which IC50 ([1]; Table 2, SRB) is on record?
A: 1.1 ± 0.03 µM

Q: And the IC50 ([2]; Table 2, SRB)?
A: 0.65 ± 0.1 µM

Q: And the AC50 ([6]; combined with suboptimal ATRA (5 nM))?
A: 0.31 µM

Q: And the “Differentiation AC50” value [6]?
A: no differentiation

Q: What about the IC50 [3, 8] of the same compound?
A: 2.4 ± 0.08 µM

Q: What about the IC50 [7] of the same compound?
A: 2.9 ± 0.2 µM

Q: What about the IC50 ([4]; Table 2, NCI-H460) of the same compound?
A: 1 ± 0.06 µM

Q: What about the IC50 ([4]; Table 3, sensitive NCI-H460) of the same compound?
A: 1 ± 0.06 µM

Q: What about the “overcoming of resistance on H460/R9A” value [5] of the same compound?
A: completely overcame the resistance

Q: What about the “RI (resistance index)” value [5] of the same compound?
A: 2.2

Q: And the IC50 [5]?
A: 2.2 ± 0.1 µM

Q: What does the source list for `O=C(O)/C=C/c1ccc(-c2ccc(O)cc2)cc1` [ST2188, E-4-(4-hydroxyphenyl)cinnamic acid, reference compound]?
A: IC50 ([1]; Homo sapiens, Table 1, SRB): 156 ± 2 µM; IC50 ([2]; Homo sapiens, Table 1, SRB): 89 ± 11 µM; IC50 [3, 11]: 78.7 ± 7.4 µM

Q: Which results are given for `COc1ccc(-c2ccc(/C=C/C(=O)NO)cc2)cc1C12CC3CC(CC(C3)C1)C2` [ST3056, E-3-(3′-Adamantan-1-yl-4′-methoxy-biphenyl-4-yl)-N-hydroxy-acrylamide]?
A: IC50 ([1]; Homo sapiens, Table 1, SRB): 1.79 ± 0.07 µM; IC50 ([2]; Homo sapiens, Table 1, SRB): 0.96 ± 0.03 µM; IC50 [3, 11]: 0.6 ± 0.05 µM; IC50 ([7]; Homo sapiens): 1.3 ± 0.1 µM; IC50 [4, 12]: 0.62 ± 0.04 µM; IC50 [4, 10]: 0.62 ± 0.04 µM; overcoming of resistance on H460/R9A [5]: completely overcame the resistance; IC50 ([5]; Homo sapiens): 1.2 ± 0.04 µM; RI (resistance index) [5]: 1.9

Q: What does the source list for `O=C(C=Cc1ccc(-c2cc3c(c(C45CC6CC(CC(C6)C4)C5)c2)OCCO3)cc1)NO` [ST3081, 3-[4-(8-Adamantan-1-yl-2,3-dihydro-benzo[1,4]dioxin-6-yl)-phenyl]-N-hydroxy-acrylamide]?
A: IC50 ([1]; Homo sapiens, Table 2, SRB): 0.84 ± 0.02 µM; IC50 ([2]; Homo sapiens, Table 2, SRB): 1.22 ± 0.04 µM; IC50 ([7]; Homo sapiens): 2.55 ± 0.03 µM; IC50 [4, 12]: 1 ± 0.04 µM; IC50 [4, 10]: 1.48 ± 0.19 µM; overcoming of resistance on H460/R9A [5]: the same characteristic are retained; IC50 ([5]; Homo sapiens): 1.39 ± 0.14 µM; RI (resistance index) [5]: 0.94

Q: `O=C(/C=C/c1ccc(-c2ccc(O)c(C34CC5CC(CC(C5)C3)C4)c2)c(Cl)c1)NO` [ST3088, E-3-(3′-Adamantan-1-yl-2-chloro-4′-hydroxy-biphenyl-4-yl)-N-hydroxy-acrylamide] was tested. Which IC50 ([1]; Homo sapiens, Table 2, SRB) did it give?
A: 1.61 ± 0.1 µM

Q: What about the IC50 ([2]; Homo sapiens, Table 2, SRB) of the same compound?
A: 1.34 ± 0.04 µM

Q: And the IC50 ([7]; Homo sapiens)?
A: 5.4 ± 0.9 µM

Q: And the IC50 [4, 12]?
A: 5.4 ± 0.3 µM

Q: What about the IC50 [4, 10] of the same compound?
A: 5.4 ± 0.3 µM

Q: What about the “overcoming of resistance on H460/R9A” value [5] of the same compound?
A: the same characteristic are retained

Q: What about the IC50 ([5]; Homo sapiens) of the same compound?
A: 7.5 ± 0.1 µM

Q: And the “RI (resistance index)” value [5]?
A: 1.4

Q: Which “Differentiation AC50” value [6] does the source give for `O=C(/C=C/c1ccc(-c2ccccc2)cc1)NO` [ST3256, E-3-(biphenyl-4-yl)-N-hydroxy-acrylamide, reference compound] here?
A: no differentiation

Q: And the IC50 [3, 9]?
A: 0.9 ± 0.1 µM

Q: Which results are given for `CN(C)c1ccc(-c2ccc(/C=C/C(=O)NO)cc2)cc1` [ST3444, E-3-[4′-dimethylaminobiphenyl-4-yl]-N-hydroxy-acrylamide, reference compound]?
A: Differentiation AC50 [6]: no differentiation; IC50 [3, 9]: 0.86 ± 0.05 µM

Q: Which “Differentiation AC50” value [6] does the source give for “E,E-5-biphenylyl-pentadienoic acid N-hydroxyamide [ST3400, reference compound]” here?
A: no differentiation

Q: What about the IC50 [3, 8] of the same compound?
A: 0.66 ± 0.003 µM
